Test results reported in article PMC12277314, “Design, synthesis, and anti-inflammatory potential of PROTAC drug molecules based on fondaparinux sodium” (Frontiers in Bioengineering and Biotechnology, 2025).
“Also recorded” adds a separate entry of the source.

Experiments:
[1] = system: IL-1β release, peripheral blood mononuclear cells (PBMCs); test: LPS-induced IL-1β release in PBMCs (ELISA); type: cell-based, Human; details: 100 nM-10 μM
Description: (§1) Human PBMCs were isolated from buffy coats (procured from Uppsala University Hospital, Sweden) using Ficoll density gradient centrifugation and stored at −150°C. Thawed PBMCs were cultured in Dulbecco’s Modified Eagle Medium (DMEM) supplemented with 10% fetal bovine serum (FBS) and 5% PeSt in a CO2 incubator. Cells were seeded in 24-well plates (0.5–1 × 10^6 cells/well in 1 mL medium). PROTAC analogs and FS were added at 10 μM, 1 μM, and 100 nM. Two setups were employed: one receiving only the compounds, and another in which LPS (20 ng/mL) was added 2 h after compound treatment. After 24 h, supernatants were collected for cytokine quantification by ELISA.
(§2) All quantitative data are presented as mean ± SD. Sample size for each assay was n = 3 biological replicates. For multi-group comparisons, one-way ANOVA followed by Tukey’s post hoc test was used; for two-group comparisons, two-tailed, unpaired Student’s t-test was applied. P < 0.05 was considered significant.

IL-6 = IL-6 (Homo sapiens, UniProt P05231); test: SPR binding to immobilized IL-6; details: CM5 chip, 1:1 binding model, 0.38-12.50 µM analyte
Sequence of IL-6 (P05231 30-212, species assumed): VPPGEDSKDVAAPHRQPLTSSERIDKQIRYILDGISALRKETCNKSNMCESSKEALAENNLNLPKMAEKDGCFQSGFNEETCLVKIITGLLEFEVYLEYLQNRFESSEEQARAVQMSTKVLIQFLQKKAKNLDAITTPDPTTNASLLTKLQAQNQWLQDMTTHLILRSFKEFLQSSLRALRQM
Description: (§3) SPR was used to evaluate the binding affinity between the PROTAC molecules and the target proteins. Target proteins CCL5 and IL-6 were immobilized on a CM5 sensor chip via amine coupling, with unreacted sites blocked using ethanolamine (pH 8.5). The PROTAC molecules were injected at concentrations ranging from 0.38 µM to 12.50 µM in PBS-P running buffer (0.02 M phosphate buffer, 137 mM NaCl, 2.7 mM KCl, 0.2% DMSO, 0.05% P20, pH 7.4). Each injection lasted 120 s (association phase) followed by a 300-s dissociation phase at a flow rate of 30 μL/min. Data were analyzed using Biacore Insight Evaluation Software with a 1:1 binding model to determine KD values. In addition to the 1:1 Langmuir model, we tested bivalent-analyte and heterogeneous-ligand models. Both alternatives yielded substantially larger residuals and poorer overall fits, confirming the 1:1 Langmuir model as the most suitable for our sensorgram data.
(§4) To comprehensively assess the biological functionality of the PROTAC molecules, binding kinetics with the target proteins CCL5 and IL-6 were investigated using the Biacore 8K^+ system. CCL5 and IL-6—key inflammatory mediators—were immobilized on a CM5 sensor chip (9000 RU) via amine coupling, and kinetic parameters were calculated using a 1:1 binding model.

[2] = system: inflammatory cytokines (IL-1β and TNF-α), PBMCs; test: LPS-induced cytokine secretion in PBMCs, cytokines overall; type: cell-based, Human; details: 100 nM-10 μM
Description: as §1, §2

CCL5 = biological target: T1, CCL5 (Homo sapiens, UniProt P13501); test: SPR binding to immobilized CCL5; details: for Kd: CM5 chip, 1:1 binding model, 0.38-12.50 µM analyte
T1 sequence (P13501 24-91): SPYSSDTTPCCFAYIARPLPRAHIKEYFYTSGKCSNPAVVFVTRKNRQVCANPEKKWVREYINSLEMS
Description: as §3, §4

[3] = system: TNF-α release, peripheral blood mononuclear cells (PBMCs); test: LPS-induced TNF-α release in PBMCs (ELISA); type: cell-based, Human; details: 100 nM-10 μM
Description: as §1, §2

[4] = system: colonic TNF-α and IL-1β levels; parameters: method as in Xu et al., 2024; details: murine colitis model; ref Xu et al., 2024; cited from earlier work

CO[C@H]1O[C@H](COS(=O)(=O)O)[C@@H](O[C@@H]2O[C@@H](C(=O)O)[C@@H](O[C@H]3O[C@H](COS(=O)(=O)O)[C@@H](O[C@@H]4O[C@H](C(=O)O)[C@@H](O[C@H]5O[C@H](COS(=O)(=O)O)[C@@H](O)[C@H](O)[C@H]5NS(=O)(=O)O)[C@H](O)[C@H]4O)[C@H](OS(=O)(=O)O)[C@H]3NS(=O)(=O)O)[C@H](O)[C@H]2OS(=O)(=O)O)[C@H](O)[C@H]1NS(=O)(=O)O [FS, Fondaparinux Sodium]
effect on LPS-induced IL-1β release (in words) [1]: no effect | Kd (IL-6): 13.5 µM | effect on LPS-induced cytokine secretion (in words) [2]: did not elicit significant changes | binding to CCL5 (in words) (CCL5; negative control): no binding

CO[C@H]1O[C@H](COS(=O)(=O)O)[C@@H](O[C@@H]2O[C@@H](C(=O)NCCCCCCCNc3cccc4c3C(=O)N(C3CCC(=O)NC3=O)C4=O)[C@@H](OC3O[C@H](COS(=O)(=O)O)[C@@H](O[C@@H]4O[C@H](C(=O)NCCCCCCCNc5cccc6c5C(=O)N(C5CCC(=O)NC5=O)C6=O)[C@@H](O[C@H]5O[C@H](COS(=O)(=O)O)[C@@H](O)[C@H](O)[C@H]5NS(=O)(=O)O)[C@H](O)[C@H]4O)[C@H](OS(=O)(=O)O)[C@H]3NS(=O)(=O)O)[C@H](O)[C@H]2OS(=O)(=O)O)[C@H](O)[C@H]1NS(=O)(=O)O (some centres unmarked) [Product 6]
effect on LPS-induced IL-1β release (in words) [1]: significantly inhibited | Kd (IL-6): 8.27 µM | effect on LPS-induced cytokine secretion (in words) [2]: significant inhibition; also recorded: concentration-dependent suppression | Kd (CCL5): 4.75 µM

CO[C@H]1O[C@H](COS(=O)(=O)O)[C@@H](O[C@@H]2O[C@@H](C(=O)NCCCCCc3cccc4c3CN(C3CCC(=O)NC3=O)C4=O)[C@@H](OC3O[C@H](COS(=O)(=O)O)[C@@H](O[C@@H]4O[C@H](C(=O)NCCCCCc5cccc6c5CN(C5CCC(=O)NC5=O)C6=O)[C@@H](O[C@H]5O[C@H](COS(=O)(=O)O)[C@@H](O)[C@H](O)[C@H]5NS(=O)(=O)O)[C@H](O)[C@H]4O)[C@H](OS(=O)(=O)O)[C@H]3NS(=O)(=O)O)[C@H](O)[C@H]2OS(=O)(=O)O)[C@H](O)[C@H]1NS(=O)(=O)O (some centres unmarked) [Product 8]
effect on LPS-induced IL-1β release (in words) [1]: no significant effect; also recorded: not statistically significant | effect on LPS-induced cytokine secretion (in words) [2]: did not elicit significant changes; also recorded: limited anti-inflammatory activity | Kd (CCL5): 9.48 µM | effect on LPS-induced TNF-α (in words) [3]: mild inhibition; also recorded: minimal

CO[C@H]1O[C@H](COS(=O)(=O)O)[C@@H](O[C@@H]2O[C@@H](C(=O)NCCCCCNc3cccc4c3C(=O)N(C3CCC(=O)NC3=O)C4=O)[C@@H](OC3O[C@H](COS(=O)(=O)O)[C@@H](O[C@@H]4O[C@H](C(=O)NCCCCCNc5cccc6c5C(=O)N(C5CCC(=O)NC5=O)C6=O)[C@@H](O[C@H]5O[C@H](COS(=O)(=O)O)[C@@H](O)[C@H](O)[C@H]5NS(=O)(=O)O)[C@H](O)[C@H]4O)[C@H](OS(=O)(=O)O)[C@H]3NS(=O)(=O)O)[C@H](O)[C@H]2OS(=O)(=O)O)[C@H](O)[C@H]1NS(=O)(=O)O (some centres unmarked) [Product 10]
effect on LPS-induced IL-1β release (in words) [1]: significantly inhibited | Kd (IL-6): 1.54 µM | effect on LPS-induced cytokine secretion (in words) [2]: significant inhibitory effect; also recorded: concentration-dependent suppression | Kd (CCL5): 11.3 µM

O=C(/C=C/C(=O)Nc1ccc(NC(=O)c2ccc([N+](=O)[O-])o2)cc1)NCCCCCCNc1cccc2c1C(=O)N(C1CCC(=O)NC1=O)C2=O (centres unmarked) [SP23]
colonic TNF-α and IL-1β levels [4]: reduced
